Laboratory results: US20240382555A1, “PEPTIDES WITH ANTI-ANGIOGENIC ACTIVITY” (priority 2021, published 2024)

What was measured:
Format in all cases: cell-based, human
HUVECs [1] = assay: Tube formation assay, HUVECs on growth factor-reduced Matrigel with pro-angiogenic stimuli; settings: for anti-angiogenic activity (number of tubes/well): HUVECs, 50 ng/ml VEGF-A or FGF-2, 10 ng/ml peptide, FIG. 5
Protocol: Tube formation assays were performed as described in Caccuri F. et al., “Evolution toward beta common chain receptor usage links the matrix proteins of HIV-1 and its ancestors to human erythropoietin,” Proc Natl Acad Sci USA. 2021; 11810.
Briefly, 150 μl of Cultrex Basement Membrane Extract (Matrigel; 10 mg/ml) (Trevigen Inc., Gaithersburg, MD, USA) or reduced growth factor Matrigel (Trevigen Inc.) were transferred to prechilled 48-well culture plates. The plates were then incubated for 1 h at 37° C.
Cells were resuspended in EGM growth medium containing 10% FBS and seeded (5×10^4 per well). […] Capillary structures were photographed with a Hitachi KP-D50 camera and then quantified as the number of tubes/well.
In some experiments, HUVECs were stimulated with optimal concentrations of human pro-angiogenic molecules such as vascular endothelial growth factor-A (VEGF-A), fibroblast growth factor-2 (FGF-2), or interleukin-8 (IL-8). Experiments were conducted using nucleofected cells or cells stimulated with U94-derived peptides.
To evaluate the ability of the peptide of sequence SEQ ID No. 2 to influence the ability of HUVECs to respond to stimulation exerted by different angiogenic mediators, HUVECs were seeded on growth-reduced Matrigel in the absence (NT) or presence of optimal concentrations of different pro-angiogenic stimuli (VEGF-A, FGF-2, or IL-8) alone or in the presence of a control peptide (CTRL) or of the peptide of sequence SEQ ID No. 2 (KDKY).
HUVECs were seeded on reduced growth factor Matrigel-coated wells wells in complete medium containing 50 ng/ml of VEGF-A or FGF-2 alone or in combination with 10 ng/ml of the control peptide (CTRL), or KDKY, AKDY, KAKY, KDAY or KDKA.
HUVECs were seeded on reduced growth factor Matrigel-coated wells in complete medium containing 50 ng/ml of VEGF-A or FGF-2 alone or in combination with 10 ng/ml of CTRL, KDKY, DKY or DRY.

HUVECs [2] = assay: Spheroids assay, HUVEC spheroids in type I collagen gel with pro-angiogenic stimuli; settings: HUVEC spheroids stimulated with VEGF-A, FGF-2 or IL-8; FIG. 2
Protocol: The assay was performed using nucleofected cells or cells stimulated with U94-derived peptides. Spheroids were generated by mixing HUVECs (1.5×10^5 cells/ml) with 5 mg/ml methylcellulose (Sigma-Aldrich) in EGM growth medium containing 10% FBS, bringing the final volume to 10 ml.
The cells (100 μl/well) were then added to 96-well plates (Greiner Bio-one, Kremsmünster, Austria) and incubated at 37° C., in a 5% CO2 atmosphere for 24 hours.
Separately, the collagen I gel solution (Rat Tail, Corning) was maintained on ice and neutralized by adding NaOH 0.1 M and PBS 10× to a final pH of 7.4.
Then, 24-well plates were coated with neutralized collagen (200 μl/well) and incubated in a humidified 5% CO2 incubator for 1 hour at 37° C.
The spheroids from the 96-well plates were collected in Eppendorf tubes and centrifuged at 4000×rpm for 5 to 10 seconds. When a clear pellet was distinguished, the supernatant was removed and the pellet was kept in a volume of about 100 μl of collagen I-neutralized solution.
Each collagen-spheroid mixture was rapidly added to pre-coated 24-well plates at 100 μl/well and incubated for 1 h. […]
Sprouting occurred from the spheroid core, which was photographed with a Hitachi KP-D50 camera, and the sprout number was counted with the spheroids similar sizes from three different wells of the plate. […]

[3] = system: SARS-CoV-2-infected HL-mECs; settings: growth factor-reduced Matrigel; MOI 1; FIG. 3
[4] = system: SARS-CoV-2-infected HL-mECs; settings: SARS-CoV-2-infected spheroids; FIG. 4

## ADKY [tetra-peptide, first amino acid of KDKY replaced by alanine]
HUVECs [1]
  anti-angiogenic activity (number of tubes/well): maintained potent anti-angiogenic activity

## DRY
HUVECs [1]
  anti-angiogenic activity (number of tubes/well): able to block angiogenic activity

## KDKY [SEQ ID No. 2]
HUVECs [1]; HUVECs stimulated with VEGF-A, FGF-2 or IL-8, 8 hours after seeding on Matrigel, FIG. 1
  angiogenic activity (tube formation, number of tubes/well): significantly impaired
HUVECs [1]
  anti-angiogenic activity (number of tubes/well): able to block angiogenic activity
HUVECs [2]
  sprouting response (number of sprouts per spheroid): drastic reduction in the sprouting response
[3]
  angiogenic activity (number of tubes/well) of SARS-CoV-2-infected HL-mECs: did not perform any angiogenic activity
[4]
  SARS-CoV-2-induced angiogenesis (number of sprouts per spheroid): potently inhibited

## DKY
HUVECs [1]
  anti-angiogenic activity (number of tubes/well): able to block angiogenic activity
